# Legend:
# Format in all cases: functional
# [1] = test system: Rattus norvegicus; assay: Antiedema efficacy was measured in male Sprague-Dawley rats relative to aspirin; activity expressed as percent of aspirin
# [2] = species on record: Rattus norvegicus; assay: Compound was tested for 50% inhibition of incidence of lesions (UD50) in rat
# [3] = Ratio between ulcerogenicity and anti edema activity (UD50/ED25)
# [4] = species on record: Rattus norvegicus; assay: Effective dose of compound to produce 25% inhibition in rat; Value ranges from 326-499
smiles,measurement,setting,value
CCCCCCCCCC(=O)OCC(COC(=O)CCCCCCCCC)OC1(C)OC(=O)c2ccccc2O1 (configuration not stated),Activity,[1],100%
same,UD50,[2],4102 µM/kg
same,Ratio,[3],10.6
CCCCCCCCCCCCCCCC(=O)OCC(COC(=O)CCCCCCCCCCCCCCC)OC1(C)OC(=O)c2ccccc2O1 (configuration not stated),Activity,[1],62%
CC(=O)OCC(COC(C)=O)OC1(C)OC(=O)c2ccccc2O1 (configuration not stated),Activity,[1],62%
CC(=O)Oc1ccccc1C(=O)O [ASPIRIN],Activity,[1],100%
same,ED25,[4],402 µM/kg
